ChEMBL document CHEMBL5113400, “Design, synthesis, and biological evaluation of trizole-based heteroaromatic derivatives as Bcr-Abl kinase inhibitors” (Eur J Med Chem, 2022)
The source made the active and inactive calls. The calls are words filed in the database; no cut-off is given here.

Columns and labels:
[1] = system: K562; test: Induction of apoptosis in human K562 cells assessed as necrotic cells at 5 uM incubated for 48 hrs by Annexin V-FITC/PI staining based flow cytometry analysis (Rvb= 0.25%); assay type: functional
[2] = system: K562; test: Induction of apoptosis in human K562 cells assessed as late apoptotic cells at 5 uM incubated for 48 hrs by Annexin V-FITC/PI staining based flow cytometry analysis (Rvb= 5.35%); assay type: functional
[3] = system: K562; test: Induction of apoptosis in human K562 cells assessed as late apoptotic cells at 10 uM incubated for 48 hrs by Annexin V-FITC/PI staining based flow cytometry analysis (Rvb= 5.35%); assay type: functional
[4] = system: BaF3; test: Antiproliferative activity against mouse BaF3 cells assessed as inhibition of cell growth incubated for 72 hrs by CellTiter-Glo luminescent assay; assay type: functional, cell-based; details: BaF3, 72 h
[5] = system: K562; test: Induction of apoptosis in human K562 cells assessed as viable cells at 10 uM incubated for 48 hrs by Annexin V-FITC/PI staining based flow cytometry analysis (Rvb= 83.0.5%); assay type: functional; details: read-out: Activity
[6] = system: K562; test: Induction of apoptosis in human K562 cells assessed as early apoptotic cells at 20 uM incubated for 48 hrs by Annexin V-FITC/PI staining based flow cytometry analysis (Rvb= 11.35%); assay type: functional
[7] = molecular target: Bcr/Abl fusion protein (Homo sapiens, UniProt P00519, T315I); test: Inhibition of Bcr-Abl T315I mutant (unknown origin) incubated for 1 hr in presence of ATP by ADP-Glo kinase assay; assay type: protein assay
[8] = system: EA.hy 926; test: Cytotoxicity against human EA.hy 926 cells assessed as inhibition of cell growth upto 100 uM incubated for 48 hrs by MTT assay; assay type: toxicity, cell-based; details: ea.hy 926, 48 h
[9] = system: K562; test: Induction of apoptosis in human K562 cells assessed as viable cells at 20 uM incubated for 48 hrs by Annexin V-FITC/PI staining based flow cytometry analysis (Rvb= 83.0.5%); assay type: functional; details: read-out: Activity
[10] = system: BaF3; test: Antiproliferative activity against mouse BaF3 cells expressing Bcr-Abl T315I mutant assessed as inhibition of cell growth at 30 uM incubated for 72 hrs by CellTiter-Glo luminescent assay; assay type: functional
[11] = system: K562; test: Induction of apoptosis in human K562 cells assessed as early apoptotic cells at 5 uM incubated for 48 hrs by Annexin V-FITC/PI staining based flow cytometry analysis (Rvb= 11.35%); assay type: functional
[12] = system: K562/Adr; test: Antiproliferative activity against human Adriamycin-resistant K562/Adr cells assessed as inhibition of cell growth incubated for 48 hrs by MTT assay; assay type: functional, cell-based
[13] = system: HEK293; test: Cytotoxicity against human HEK293 cells assessed as inhibition of cell growth upto 100 uM incubated for 48 hrs by MTT assay; assay type: toxicity, cell-based; details: hek293, 48 h
[14] = molecular target: T1, Signal transducer and activator of transcription 5A (Homo sapiens) (UniProt P42229); test: Inhibition of STAT5 phosphorylation at Tyr694 residue in human K562 cells expressing wild type Bcr-Abl at 0.1 to 15 uM measured after 48 hrs by Western blot analysis; assay type: cell-based; details: dose 0.1-15 µM, DDE = dose-dependent effect
T1 sequence (whole entry): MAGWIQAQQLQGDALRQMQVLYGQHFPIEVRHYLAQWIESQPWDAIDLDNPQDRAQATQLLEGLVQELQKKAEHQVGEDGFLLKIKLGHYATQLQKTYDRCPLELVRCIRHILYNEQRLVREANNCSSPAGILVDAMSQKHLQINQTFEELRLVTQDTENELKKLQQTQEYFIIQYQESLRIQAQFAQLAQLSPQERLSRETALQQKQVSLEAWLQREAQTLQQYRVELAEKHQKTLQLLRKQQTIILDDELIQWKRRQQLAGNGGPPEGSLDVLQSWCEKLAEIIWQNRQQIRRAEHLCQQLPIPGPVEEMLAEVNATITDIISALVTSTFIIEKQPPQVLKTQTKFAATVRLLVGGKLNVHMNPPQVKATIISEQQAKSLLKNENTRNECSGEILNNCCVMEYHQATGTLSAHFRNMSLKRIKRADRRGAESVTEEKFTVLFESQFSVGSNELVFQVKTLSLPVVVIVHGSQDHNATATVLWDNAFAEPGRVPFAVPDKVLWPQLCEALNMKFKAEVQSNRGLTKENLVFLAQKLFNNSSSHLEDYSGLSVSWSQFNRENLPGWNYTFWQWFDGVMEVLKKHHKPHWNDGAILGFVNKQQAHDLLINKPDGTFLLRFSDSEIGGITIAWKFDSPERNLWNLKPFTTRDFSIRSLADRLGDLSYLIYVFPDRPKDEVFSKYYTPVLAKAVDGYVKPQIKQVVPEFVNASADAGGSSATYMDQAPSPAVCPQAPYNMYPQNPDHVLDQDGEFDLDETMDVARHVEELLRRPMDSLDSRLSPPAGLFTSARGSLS

[15] = system: K-562R; test: Antiproliferative activity against human K-562R cells expressing Bcr-Abl T315I mutant assessed as inhibition of cell growth incubated for 48 hrs by MTT assay; assay type: functional, cell-based
[16] = system: K562; test: Induction of apoptosis in human K562 cells assessed as necrotic cells at 20 uM incubated for 48 hrs by Annexin V-FITC/PI staining based flow cytometry analysis (Rvb= 0.25%); assay type: functional
[17] = molecular target: Bcr/Abl fusion protein (Homo sapiens, UniProt P00519); test: Inhibition of wild type Bcr-Abl (unknown origin) incubated for 1 hr in presence of ATP by ADP-Glo kinase assay; assay type: protein assay
[18] = system: K562; test: Antiproliferative activity against human K562 cells assessed as inhibition of cell growth incubated for 48 hrs by MTT assay; assay type: functional, cell-based; details: K562, 48 h
[19] = system: BaF3; test: Antiproliferative activity against mouse BaF3 cells expressing wild type Bcr-Abl assessed as inhibition of cell growth incubated for 72 hrs by CellTiter-Glo luminescent assay; assay type: functional, cell-based; details: BaF3, 72 h
[20] = system: K562; test: Induction of cell cycle arrest in human K562 cells assessed as accumulation at S phase at 5 to 20 uM incubated for 48 hrs by PI staining based flow cytometry (Rvb=49%); assay type: functional; details: dose 5-20 µM
[21] = system: K562; test: Induction of apoptosis in human K562 cells assessed as necrotic cells at 10 uM incubated for 48 hrs by Annexin V-FITC/PI staining based flow cytometry analysis (Rvb= 0.25%); assay type: functional
[22] = system: BaF3; test: Antiproliferative activity against mouse BaF3 cells expressing Bcr-Abl T315I mutant assessed as inhibition of cell growth incubated for 72 hrs by CellTiter-Glo luminescent assay; assay type: functional, cell-based; details: BaF3, 72 h
[23] = system: K562; test: Induction of apoptosis in human K562 cells assessed as viable cells at 5 uM incubated for 48 hrs by Annexin V-FITC/PI staining based flow cytometry analysis (Rvb= 83.0.5%); assay type: functional; details: read-out: Activity
[24] = molecular target: T2, Bcr/Abl fusion protein (Homo sapiens) (UniProt P00519+P11274); test: Inhibition of Bcr-Abl phosphorylation at Tyr245 residue in human K562 cells expressing wild type Bcr-Abl at 0.1 to 15 uM measured after 48 hrs by Western blot analysis; assay type: cell-based; details: dose 0.1-15 µM, DDE = dose-dependent effect
[25] = system: K562; test: Induction of apoptosis in human K562 cells assessed as early apoptotic cells at 10 uM incubated for 48 hrs by Annexin V-FITC/PI staining based flow cytometry analysis (Rvb= 11.35%); assay type: functional
[26] = system: K562; test: Induction of apoptosis in human K562 cells assessed as late apoptotic cells at 20 uM incubated for 48 hrs by Annexin V-FITC/PI staining based flow cytometry analysis (Rvb= 5.35%); assay type: functional
[27] = system: K562; test: Induction of cell cycle arrest in human K562 cells assessed as reduction in G0/G1 phase at 1 to 10 uM incubated for 48 hrs by PI staining based flow cytometry; assay type: functional; details: dose 1-10 µM
[28] = system: K562; test: Induction of apoptosis in human K562 cells assessed as early apoptotic cells at 1 uM incubated for 48 hrs by Annexin V-FITC/PI staining based flow cytometry analysis (Rvb= […]); assay type: functional
[29] = system: K562; test: Induction of apoptosis in human K562 cells assessed as early apoptotic cells at 10 uM incubated for 48 hrs by Annexin V-FITC/PI staining based flow cytometry analysis (Rvb= […]); assay type: functional
[30] = molecular target: T2, Bcr/Abl fusion protein (Homo sapiens); test: Inhibition of Bcr-Abl phosphorylation at Tyr245 residue in human K562 cells expressing wild type Bcr-Abl at 5 to 15 uM measured after 48 hrs by Western blot analysis; assay type: cell-based; details: dose 5-15 µM
[31] = system: K562; test: Induction of apoptosis in human K562 cells assessed as late apoptotic cells at 1 uM incubated for 48 hrs by Annexin V-FITC/PI staining based flow cytometry analysis (Rvb= 2.89%); assay type: functional
[32] = system: K562; test: Induction of apoptosis in human K562 cells assessed as viable cells at 5 uM incubated for 48 hrs by Annexin V-FITC/PI staining based flow cytometry analysis (Rvb= 80.56%); assay type: functional; details: read-out: Activity
[33] = system: K562; test: Induction of cell cycle arrest in human K562 cells assessed as accumulation at S phase at 1 to 10 uM incubated for 48 hrs by PI staining based flow cytometry; assay type: functional; details: dose 1-10 µM
[34] = system: K562; test: Induction of apoptosis in human K562 cells assessed as viable cells at 10 uM incubated for 48 hrs by Annexin V-FITC/PI staining based flow cytometry analysis (Rvb= 80.56%); assay type: functional; details: read-out: Activity
[35] = system: K562; test: Induction of apoptosis in human K562 cells assessed as late apoptotic cells at 5 uM incubated for 48 hrs by Annexin V-FITC/PI staining based flow cytometry analysis (Rvb= 2.89%); assay type: functional
[36] = system: K562; test: Induction of apoptosis in human K562 cells assessed as late apoptotic cells at 10 uM incubated for 48 hrs by Annexin V-FITC/PI staining based flow cytometry analysis (Rvb= 2.89%); assay type: functional
[37] = system: K562; test: Induction of apoptosis in human K562 cells assessed as necrotic cells at 1 uM incubated for 48 hrs by Annexin V-FITC/PI staining based flow cytometry analysis (Rvb= 0.29%); assay type: functional
[38] = system: K562; test: Induction of apoptosis in human K562 cells assessed as necrotic cells at 10 uM incubated for 48 hrs by Annexin V-FITC/PI staining based flow cytometry analysis (Rvb= 0.29%); assay type: functional
[39] = system: K562; test: Induction of apoptosis in human K562 cells assessed as necrotic cells at 5 uM incubated for 48 hrs by Annexin V-FITC/PI staining based flow cytometry analysis (Rvb= 0.29%); assay type: functional
[40] = system: K562; test: Induction of apoptosis in human K562 cells assessed as viable cells at 1 uM incubated for 48 hrs by Annexin V-FITC/PI staining based flow cytometry analysis (Rvb= 80.56%); assay type: functional; details: read-out: Activity
[41] = system: K562; test: Induction of apoptosis in human K562 cells assessed as early apoptotic cells at 5 uM incubated for 48 hrs by Annexin V-FITC/PI staining based flow cytometry analysis (Rvb= […]); assay type: functional

`O=C(Nc1n[nH]c2cc(-c3cn([C@@H]4CN[C@H](C(=O)Nc5ccc(Cl)c(C(F)(F)F)c5)C4)nn3)ccc12)C1CC1` gave an Activity [1] of 0.22%, an Activity [2] of 8.75% and an Activity [3] of 12.74%. For the same molecule, the IC50 [4] was > 20 µM, the viability at 10 µM [5] was 68.6% and the Activity [6] was 33.16%. The IC50 [7] was 0.188 µM, the Activity [8] was “Non-Toxic” and the viability at 20 µM [9] was 54.4%. It also gave an inhibition at 30 µM [10] of 85.4%, an Activity [11] of 14.34% and an IC50 [12] of 9.57 µM. The Activity [13] was “Non-Toxic”, the inhibition [14] was “Dde” and the IC50 [15] was 40.1 µM. The Activity [16] was 0.23%, the IC50 [17] was 0.0015 µM and the IC50 [18] was 5.2 µM. For the same molecule, the IC50 [19] was 1.42 µM, the Activity [20] was 54.15% and the Activity [21] was 0.19%. For the same molecule, the IC50 [22] was 9.47 µM, the viability at 5 µM [23] was 76.7% and the inhibition [24] was “Dde”. For the same molecule, the Activity [25] was 18.48% and the Activity [26] was 12.2%.

For `CS(=O)(=O)Nc1ccc(-c2cn([C@@H]3CN[C@H](C(=O)Nc4ccc(Cl)c(C(F)(F)F)c4)C3)nn2)cn1`, the Activity [27] was “Active”, the IC50 [4] was > 20 µM and the Activity [28] was 18.03%. For the same molecule, the Activity [29] was 23.79%, the inhibition [30] was “Active” and the IC50 [7] was 0.111 µM. For the same molecule, the Activity [31] was 2.43%, the Activity [8] was “Non-Toxic” and the viability at 5 µM [32] was 79.3%. The inhibition at 30 µM [10] was 99.7%, the IC50 [12] was 4.72 µM and the Activity [33] was “Active”. For the same molecule, the viability at 10 µM [34] was 71.8%, the Activity [13] was “Non-Toxic” and the inhibition [14] was “Dde”. The IC50 [15] was 13.3 µM, the IC50 [17] was 0.00049 µM and the Activity [35] was 3.19%. It also gave an Activity [36] of 4.11%, an IC50 [18] of 5.06 µM and an IC50 [19] of 6.96 µM. It also gave an Activity [37] of 0.19%, an IC50 [22] of 4.13 µM and an Activity [38] of 0.28%. It also gave an Activity [39] of 0.4%, a viability at 1 µM [40] of 79.3% and an Activity [41] of 17.14%.
